Measurements published in PMC4527756 (Bioorganic & medicinal chemistry, 2015).
Read-outs that look alike come from different tables or passages of the source.

Assays:
α4β2* nAChR [1] = settings: [3H]cytisine, cited from earlier work; for Ki: read-out: α4β2* Ki
α4β2* nAChR [2] = target: α4β2* nAChR (Rattus norvegicus, UniProt P09483+P12390); assay: radioligand binding assay, α4β2* nAChR; design: species or system Sprague-Dawley rat; settings: for Measured activity scale: class of measured α4β2* Ki; for affinity for nAChR subtypes (in words): α4β2* and other nAChR subtypes tested
α4β2* nAChR (Rattus norvegicus, UniProt P09483+P12390), sequence (P09483 31-630): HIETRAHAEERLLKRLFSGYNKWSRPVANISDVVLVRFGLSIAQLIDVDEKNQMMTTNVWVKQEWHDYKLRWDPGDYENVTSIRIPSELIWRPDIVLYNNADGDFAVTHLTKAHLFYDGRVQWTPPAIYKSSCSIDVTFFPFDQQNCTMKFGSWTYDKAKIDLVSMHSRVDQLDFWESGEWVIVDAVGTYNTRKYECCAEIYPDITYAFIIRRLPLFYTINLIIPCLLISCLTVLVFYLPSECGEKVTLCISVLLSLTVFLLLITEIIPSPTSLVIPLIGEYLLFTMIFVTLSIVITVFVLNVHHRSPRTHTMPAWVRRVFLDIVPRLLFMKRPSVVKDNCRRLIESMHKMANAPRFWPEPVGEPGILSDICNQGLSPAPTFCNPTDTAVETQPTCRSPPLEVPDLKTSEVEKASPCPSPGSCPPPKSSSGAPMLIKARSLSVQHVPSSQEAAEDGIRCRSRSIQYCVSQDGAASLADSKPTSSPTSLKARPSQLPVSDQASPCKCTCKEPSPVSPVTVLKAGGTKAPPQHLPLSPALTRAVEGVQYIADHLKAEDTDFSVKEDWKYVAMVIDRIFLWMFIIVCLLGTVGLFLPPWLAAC
α4β2* nAChR (Rattus norvegicus, UniProt P09483+P12390), sequence (P12390 25-500): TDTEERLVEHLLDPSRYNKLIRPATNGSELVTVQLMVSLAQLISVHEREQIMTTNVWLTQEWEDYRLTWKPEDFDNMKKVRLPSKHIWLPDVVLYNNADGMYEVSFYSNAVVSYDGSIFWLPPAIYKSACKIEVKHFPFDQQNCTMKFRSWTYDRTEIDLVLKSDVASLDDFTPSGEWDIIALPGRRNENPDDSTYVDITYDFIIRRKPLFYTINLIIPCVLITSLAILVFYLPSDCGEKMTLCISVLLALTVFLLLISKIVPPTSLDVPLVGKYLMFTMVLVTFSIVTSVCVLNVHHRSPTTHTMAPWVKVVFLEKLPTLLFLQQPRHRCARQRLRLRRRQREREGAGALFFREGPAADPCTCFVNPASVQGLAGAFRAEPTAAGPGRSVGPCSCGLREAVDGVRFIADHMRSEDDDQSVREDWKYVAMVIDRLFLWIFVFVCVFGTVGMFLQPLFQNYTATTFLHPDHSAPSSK

α3β4* nAChR = α3β4* nAChR (Sus scrofa, UniProt A0A287A7Z4+O18764); assay: radioligand binding assay, α3β4* nAChR; design: species or system pig
α7* nAChR = α7* nAChR (Rattus norvegicus, UniProt Q05941); assay: radioligand binding assay, α7* nAChR; design: species or system Sprague-Dawley rat
α7* nAChR, sequence (Q05941 23-502): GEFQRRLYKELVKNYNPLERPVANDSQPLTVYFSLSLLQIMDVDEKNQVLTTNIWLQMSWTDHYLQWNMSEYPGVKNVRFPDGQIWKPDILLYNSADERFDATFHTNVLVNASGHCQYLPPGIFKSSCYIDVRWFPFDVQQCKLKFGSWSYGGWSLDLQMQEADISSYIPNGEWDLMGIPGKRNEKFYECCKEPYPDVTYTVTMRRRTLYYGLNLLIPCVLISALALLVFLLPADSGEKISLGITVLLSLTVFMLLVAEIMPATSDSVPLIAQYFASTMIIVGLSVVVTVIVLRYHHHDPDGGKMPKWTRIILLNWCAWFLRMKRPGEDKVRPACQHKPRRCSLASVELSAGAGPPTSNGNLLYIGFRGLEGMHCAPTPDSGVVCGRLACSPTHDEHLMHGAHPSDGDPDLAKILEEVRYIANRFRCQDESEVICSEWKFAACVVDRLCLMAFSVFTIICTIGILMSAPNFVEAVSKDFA

[3] = target: (α1)2β1γδ ("muscle type") nAChR (Tetronarce californica, UniProt P02710+P02714+P02718); assay: radioligand binding assay, muscle type nAChR; design: species or system Torpedo californica
(α1)2β1γδ ("muscle type") nAChR, sequence (P02718 22-522): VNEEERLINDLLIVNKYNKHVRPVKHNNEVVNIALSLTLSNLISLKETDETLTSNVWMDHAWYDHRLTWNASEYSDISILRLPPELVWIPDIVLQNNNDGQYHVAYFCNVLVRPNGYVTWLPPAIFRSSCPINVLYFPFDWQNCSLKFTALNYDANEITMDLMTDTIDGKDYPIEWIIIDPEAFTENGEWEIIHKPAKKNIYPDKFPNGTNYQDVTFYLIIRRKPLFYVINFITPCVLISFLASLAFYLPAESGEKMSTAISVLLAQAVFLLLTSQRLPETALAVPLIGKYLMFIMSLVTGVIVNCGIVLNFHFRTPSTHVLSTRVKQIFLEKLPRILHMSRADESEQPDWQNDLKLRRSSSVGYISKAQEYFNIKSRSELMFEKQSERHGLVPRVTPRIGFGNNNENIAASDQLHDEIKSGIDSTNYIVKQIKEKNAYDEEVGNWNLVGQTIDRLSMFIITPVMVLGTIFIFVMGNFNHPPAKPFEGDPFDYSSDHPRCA
(α1)2β1γδ ("muscle type") nAChR, sequence (P02714 18-506): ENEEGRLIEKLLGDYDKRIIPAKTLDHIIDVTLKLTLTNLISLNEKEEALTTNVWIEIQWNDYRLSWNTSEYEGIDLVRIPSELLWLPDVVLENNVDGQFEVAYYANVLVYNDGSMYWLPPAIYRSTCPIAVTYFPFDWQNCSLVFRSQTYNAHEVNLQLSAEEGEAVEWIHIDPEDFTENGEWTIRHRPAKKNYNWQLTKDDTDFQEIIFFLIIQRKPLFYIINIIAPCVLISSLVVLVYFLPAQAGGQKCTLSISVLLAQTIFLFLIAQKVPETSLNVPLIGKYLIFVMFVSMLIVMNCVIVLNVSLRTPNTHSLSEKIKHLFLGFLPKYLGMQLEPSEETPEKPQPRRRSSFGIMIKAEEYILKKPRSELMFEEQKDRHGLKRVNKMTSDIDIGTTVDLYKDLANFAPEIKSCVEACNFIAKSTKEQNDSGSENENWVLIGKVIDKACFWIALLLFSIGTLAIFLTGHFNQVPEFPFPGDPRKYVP
(α1)2β1γδ ("muscle type") nAChR, sequence (P02710 25-461): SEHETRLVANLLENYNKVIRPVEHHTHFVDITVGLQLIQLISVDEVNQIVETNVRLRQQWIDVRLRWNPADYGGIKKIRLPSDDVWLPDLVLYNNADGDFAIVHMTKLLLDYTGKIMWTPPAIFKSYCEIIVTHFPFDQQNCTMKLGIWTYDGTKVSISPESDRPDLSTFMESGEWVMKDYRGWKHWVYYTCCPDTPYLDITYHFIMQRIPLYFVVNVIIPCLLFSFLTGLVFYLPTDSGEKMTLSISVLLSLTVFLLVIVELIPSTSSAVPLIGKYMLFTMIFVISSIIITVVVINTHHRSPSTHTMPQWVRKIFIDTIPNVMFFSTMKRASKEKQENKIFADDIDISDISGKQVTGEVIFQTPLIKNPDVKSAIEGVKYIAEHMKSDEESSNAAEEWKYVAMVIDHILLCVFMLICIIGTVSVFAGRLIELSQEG
(α1)2β1γδ ("muscle type") nAChR, sequence (P02712 25-493, further chain): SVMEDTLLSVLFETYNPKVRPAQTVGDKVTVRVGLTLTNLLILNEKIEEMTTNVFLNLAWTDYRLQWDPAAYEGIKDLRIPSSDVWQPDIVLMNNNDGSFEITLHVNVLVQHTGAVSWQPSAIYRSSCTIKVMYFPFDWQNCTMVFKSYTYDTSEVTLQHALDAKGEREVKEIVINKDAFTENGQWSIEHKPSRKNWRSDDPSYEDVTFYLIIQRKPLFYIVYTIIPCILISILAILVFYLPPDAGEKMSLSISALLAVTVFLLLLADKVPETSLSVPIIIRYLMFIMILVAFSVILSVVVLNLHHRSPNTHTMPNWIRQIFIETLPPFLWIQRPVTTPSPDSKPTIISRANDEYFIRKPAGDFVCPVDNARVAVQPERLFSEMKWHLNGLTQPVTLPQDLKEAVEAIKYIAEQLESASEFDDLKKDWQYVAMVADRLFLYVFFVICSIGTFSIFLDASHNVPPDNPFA

α4β2* nAChRs = settings: cited from earlier work
[4] = system: mouse tail suspension test; settings: cited from earlier work
α4β2* nAChR [5] = settings: read-out: α4β2* Ki; cited from earlier work
mouse tail-flick test = settings: cited from earlier work
α7 nAChR = settings: read-out: α7 nAChR IC50; selective α7 nAChR agonist; cited from earlier work

CN1CCCN(c2cccnc2)CC1 [Compound 12b]
IC50 (α4β2* nAChR [1]; read-out: α4β2* (IC50), printed as IC50 in Ki column): 150 nM

CN(C)CCOc1cncc(-c2cncc(OCCN(C)C)c2)c1 [Compound 10, 2,2′-([3,3′-bipyridine]-5,5′-diylbis(oxy))bis(N,N-dimethylethanamine)]
fold decreased α4β2* affinity in comparison with single entity 9 (α4β2* nAChR [2]; versus compound 9): approximately nine-fold | interaction with α3β4* nAChR (in words) (α3β4* nAChR): no interaction | interaction with α7* nAChR (in words) (α7* nAChR): no interaction

CN(C)CCOc1cncc(N2CC3CNCC(C3)C2)c1 [Compound 17a, 2-((5-(3,7-diazabicyclo[3.3.1]nonan-3-yl)pyridin-3-yl)oxy)-N,N-dimethylethanamine]
Measured activity scale (α4β2* nAChR [2]): +++ (highly active +++, Ki < 150 nM) | Ki [3]: > 1000 nM | functional activity for α4β2* nAChRs (in words) (α4β2* nAChRs): partial agonist activity | effect in the mouse tail suspension test (in words) [4]: efficacy in the mouse tail suspension test

CN(C)CCOc1cncc(N2CCCC2)c1 [Compound 23, N,N-dimethyl-2-{[5-(pyrrolidin-1-yl)pyridin-3-yl]oxy}ethanamine]
Measured activity scale (α4β2* nAChR [2]): + (inactive +, Ki > 1,000 nM) | affinity for nAChR subtypes (in words) (α4β2* nAChR [2]): complete loss of affinity

CN(C)CCOc1cncc(N2CCOCC2)c1 [Compound 25, N,N-dimethyl-2-{[5-(morpholin-4-yl)pyridin-3-yl]oxy}ethanamine]
Measured activity scale (α4β2* nAChR [2]): + (inactive +, Ki > 1,000 nM) | affinity for nAChR subtypes (in words) (α4β2* nAChR [2]): complete loss of affinity

CN(C)CCOc1cc(N2CC3CNCC(C3)C2)cc(F)c1F [Compound 17c, 2-(5-(3,7-diazabicyclo[3.3.1]nonan-3-yl)-2,3-difluorophenoxy)-N,N-dimethylethanamine]
Ki [3]: > 1000 nM

CN1[C@@H](CC(=O)c2ccccc2)CCC[C@H]1C[C@H](O)c1ccccc1 [Lobeline 1, lobeline]
Ki (α4β2* nAChR [5]): 4 to 30 nM

c1cncc(N2CCNCC2)c1 [Compound 13a]
Ki (α4β2* nAChR [1]; ref 26): 90 nM

CN(C)CCOc1cncc(N2CCC2)c1 [Compound 22, 2-{[5-(azetidin-1-yl)pyridin-3-yl]oxy}-N,N-dimethylethanamine]
Measured activity scale (α4β2* nAChR [2]): ++ (moderately active ++, 150 nM < Ki < 1,000 nM) | interaction with α7* nAChR (in words) (α7* nAChR): no activity

CN(C)CCOc1cncc(N2CCCN(C)CC2)c1 [Compound 19a, N,N-dimethyl-2-((5-(4-methyl-1,4-diazepan-1-yl)pyridin-3-yl)oxy)ethanamine]
Ki (α4β2* nAChR [2]): 6.9 nM | Measured activity scale (α4β2* nAChR [2]): ++ (moderately active ++, 150 nM < Ki < 1,000 nM)

CN(C)CCOc1cncc(N2CCC(O)CC2)c1 [Compound 26, 1-(5-(2-(dimethylamino)ethoxy)pyridin-3-yl)piperidin-4-ol]
Measured activity scale (α4β2* nAChR [2]): ++ (moderately active ++, 150 nM < Ki < 1,000 nM) | interaction with α7* nAChR (in words) (α7* nAChR): no activity

CN(C)CCOc1cncc(N2CCN(C)CC2)c1 [Compound 21a, N,N-dimethyl-2-{[5-(4-methylpiperazin-1-yl)pyridin-3-yl]oxy}ethanamine]
Measured activity scale (α4β2* nAChR [2]): +++ (highly active +++, Ki < 150 nM) | Ki [3]: > 1000 nM

CN(C)CCOc1cncc(N2CCCCC2)c1 [Compound 24, N,N-dimethyl-2-{[5-(piperidin-1-yl)pyridin-3-yl]oxy}ethanamine]
Measured activity scale (α4β2* nAChR [2]): + (inactive +, Ki > 1,000 nM) | affinity for nAChR subtypes (in words) (α4β2* nAChR [2]): complete loss of affinity

CN(C)CCOc1cncc(N2CCCNCC2)c1 [Compound 18a, 2-((5-(1,4-diazepan-1-yl)pyridin-3-yl)oxy)-N,N-dimethylethanamine]
Measured activity scale (α4β2* nAChR [2]): +++ (highly active +++, Ki < 150 nM) | Ki [3]: > 1000 nM

CN(C)CCOc1cncc(N2CCNCC2)c1 [Compound 20a, N,N-dimethyl-2-{[5-(piperazin-1-yl)pyridin-3-yl]oxy}ethanamine]
fold lower α4β2* affinity in comparison with compound 17a (α4β2* nAChR [2]): about 770 fold | Measured activity scale (α4β2* nAChR [2]): +++ (highly active +++, Ki < 150 nM) | Ki [3]: > 1000 nM

CN(C)CCOc1cccnc1 [Compound 9, N,N-dimethyl-2-(pyridin-3-yloxy)ethan-1-amine]
Ki (α4β2* nAChR [1]; ref 23): 32.6 nM | Ki (α4β2* nAChR [1]; ref 24): 24 nM | In vivo activity ED50 (mouse tail-flick test): ED50 (mg/kg) = 15 (mouse tail-flick test) [24]

CN1CCN(c2cccnc2)CC1 [Compound 13b]
Ki (α4β2* nAChR [1]; ref 26): 90 nM

CN(C)CCOc1cc(F)cc(N2CC3CNCC(C3)C2)c1 [Compound 17b, 2-(3-(3,7-diazabicyclo[3.3.1]nonan-3-yl)-5-fluorophenoxy)-N,N-dimethylethanamine]
Ki [3]: > 1000 nM

CCN(CC)CCOc1ccc2c(c1)C(=O)c1cc(OCCN(CC)CC)ccc1-2 [tilorone 8, tilorone]
IC50 (α7 nAChR): 110 nM
